pKd: −log10 of the molar value. Where a SMILES comes first, the peptide text is derived from it. Bridges are numbered along the chain shown (N, C = ends). [ ]: non-standard residue; d: D form. hPhe(3-Cl-4-CF3) = N[C@@H](CCc1ccc(C(F)(F)F)c(Cl)c1)C(=O)O; NPrPhe(4-CF3) = CCCN[C@@H](Cc1ccc(C(F)(F)F)cc1)C(=O)O; NMeGly(cPent) = CN[C@H](C(=O)O)C1CCCC1; Pro(4,4-F2) = O=C(O)[C@@H]1CC(F)(F)CN1; Hyp = O=C(O)[C@@H]1C[C@@H](O)CN1; NMeD = CN[C@@H](CC(=O)O)C(=O)O; NMeL = CN[C@@H](CC(C)C)C(=O)O; Ac5c = NC1(C(=O)O)CCCC1; Ac4c = NC1(C(=O)O)CCC1; NEtG = CCNCC(=O)O; Sar = CNCC(=O)O
What was measured:
[1] = biological target: GDP-bound HRAS wild-type protein (Homo sapiens, UniProt P01112); test: Binding to HRAS by surface plasmon resonance (SPR), Single Cycle Kinetics; details: SPR, GDP-bound HRAS wild-type protein vs GDP-bound KRAS wild-type protein
GDP-bound HRAS wild-type protein, sequence (P01112 whole entry): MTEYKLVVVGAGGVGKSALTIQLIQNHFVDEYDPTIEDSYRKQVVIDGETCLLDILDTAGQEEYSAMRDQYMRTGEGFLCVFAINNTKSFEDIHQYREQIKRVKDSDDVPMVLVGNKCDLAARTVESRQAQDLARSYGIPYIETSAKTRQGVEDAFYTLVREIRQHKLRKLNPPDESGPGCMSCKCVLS

[2] = biological target: GDP-bound NRAS wild-type protein (Homo sapiens, UniProt P01111); test: Binding to NRAS by surface plasmon resonance (SPR), Single Cycle Kinetics; details: SPR, GDP-bound NRAS wild-type protein vs GDP-bound KRAS wild-type protein
GDP-bound NRAS wild-type protein, sequence (P01111 whole entry): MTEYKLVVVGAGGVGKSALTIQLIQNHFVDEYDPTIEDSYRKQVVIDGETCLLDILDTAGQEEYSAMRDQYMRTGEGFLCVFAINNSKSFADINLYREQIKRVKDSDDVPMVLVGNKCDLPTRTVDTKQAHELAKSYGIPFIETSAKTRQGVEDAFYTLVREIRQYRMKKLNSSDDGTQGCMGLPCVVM

[3] = biological target: GDP-bound KRAS wild-type protein (Homo sapiens, UniProt P01116); test: Binding to KRAS by surface plasmon resonance (SPR), Single Cycle Kinetics; details: SPR Single Cycle Kinetics, GDP-bound KRAS wild-type protein, 1:1 binding model; read-out: KRAS KD
GDP-bound KRAS wild-type protein, sequence (P01116 whole entry): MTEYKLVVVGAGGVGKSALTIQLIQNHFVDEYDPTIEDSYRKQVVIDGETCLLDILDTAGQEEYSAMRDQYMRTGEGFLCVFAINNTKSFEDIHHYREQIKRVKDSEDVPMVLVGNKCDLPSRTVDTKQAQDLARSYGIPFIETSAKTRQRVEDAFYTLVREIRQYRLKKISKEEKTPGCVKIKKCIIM

| SMILES | HRAS/KRAS (ratio of KD value with respect to HRAS to KD value with respect to KRAS) [1] | NRAS/KRAS (ratio of KD value with respect to NRAS to KD value with respect to KRAS) [2] | pKd [3] |
| --- | --- | --- | --- |
| CCCN1C(=O)CN(C)C(=O)CNC(=O)[C@H]([C@@H](C)CC)NC(=O)[C@H](CC(C)C)N(C)C(=O)C[C@@H](C(=O)N(C)C)N(C)C(=O)[C@H](C2CCCC2)N(C)C(=O)C2(CCCC2)NC(=O)[C@@H]2CC(F)(F)CN2C(=O)[C@H](CCc2ccc(C(F)(F)F)c(Cl)c2)NC(=O)CN(C)C(=O)[C@@H]1Cc1ccc(C(F)(F)F)cc1 [PP0419] ([NMeL]IG[Sar][NPrPhe(4-CF3)][Sar][hPhe(3-Cl-4-CF3)][Pro(4,4-F2)][Ac5c][NMeGly(cPent)][NMeD]-NMe2; lactam N-11) | C (A compound having a KD ratio of 0.1 or more and less than 3 is denoted as C) | B (a compound having 3 or more and less than 10 is denoted as B) | 10.17 |
| CCCN1C(=O)CN(C)C(=O)CNC(=O)[C@H]([C@@H](C)CC)NC(=O)[C@H](CC(C)C)N(C)C(=O)C[C@@H](C(=O)N(C)C)N(C)C(=O)[C@H](C2CCCC2)N(C)C(=O)C2(CCC2)NC(=O)[C@@H]2CC(F)(F)CN2C(=O)[C@H](CCc2ccc(C(F)(F)F)c(Cl)c2)NC(=O)CN(C)C(=O)[C@@H]1Cc1ccc(C(F)(F)F)cc1 [PP0420] ([NMeL]IG[Sar][NPrPhe(4-CF3)][Sar][hPhe(3-Cl-4-CF3)][Pro(4,4-F2)][Ac4c][NMeGly(cPent)][NMeD]-NMe2; lactam N-11) | C (A compound having a KD ratio of 0.1 or more and less than 3 is denoted as C) | B (a compound having 3 or more and less than 10 is denoted as B) | 10.47 |
| CCCN1C(=O)CN(C)C(=O)CNC(=O)[C@H]([C@@H](C)CC)NC(=O)[C@H](CC(C)C)N(C)C(=O)C[C@@H](C(=O)N(C)C)N(C)C(=O)[C@H](C2CCCC2)N(C)C(=O)C2(CCCC2)NC(=O)[C@@H]2C[C@@H](OCC)CN2C(=O)[C@H](CCc2ccc(C(F)(F)F)c(Cl)c2)NC(=O)CN(C)C(=O)[C@@H]1Cc1ccc(C(F)(F)F)cc1 [PP0421] ([NMeL]IG[Sar][NPrPhe(4-CF3)][Sar][hPhe(3-Cl-4-CF3)][Hyp](Et)[Ac5c][NMeGly(cPent)][NMeD]-NMe2; lactam N-11) | C (A compound having a KD ratio of 0.1 or more and less than 3 is denoted as C) | B (a compound having 3 or more and less than 10 is denoted as B) | 10.48 |
| CCCN1C(=O)CN(C)C(=O)CNC(=O)[C@H]([C@@H](C)CC)NC(=O)[C@H](CC(C)C)N(C)C(=O)C[C@@H](C(=O)N(C)C)N(C)C(=O)[C@H](C2CCCC2)N(C)C(=O)C2(CCC2)NC(=O)[C@@H]2C[C@@H](OCC)CN2C(=O)[C@H](CCc2ccc(C(F)(F)F)c(Cl)c2)NC(=O)CN(C)C(=O)[C@@H]1Cc1ccc(C(F)(F)F)cc1 [PP0422] ([NMeL]IG[Sar][NPrPhe(4-CF3)][Sar][hPhe(3-Cl-4-CF3)][Hyp](Et)[Ac4c][NMeGly(cPent)][NMeD]-NMe2; lactam N-11) | B (a compound having 3 or more and less than 10 is denoted as B) | B (a compound having 3 or more and less than 10 is denoted as B) | 10.77 |
| CCCN1C(=O)CN(C)C(=O)CN(CC)C(=O)[C@H]([C@@H](C)CC)NC(=O)[C@H](CC(C)C)N(C)C(=O)C[C@@H](C(=O)N(C)C)N(C)C(=O)[C@H](C2CCCC2)N(C)C(=O)C2(CCC2)NC(=O)[C@@H]2CCCN2C(=O)[C@H](CCc2ccc(C(F)(F)F)c(Cl)c2)NC(=O)CN(C)C(=O)[C@@H]1Cc1ccc(C(F)(F)F)cc1 [PP0424] ([NMeL]I[NEtG][Sar][NPrPhe(4-CF3)][Sar][hPhe(3-Cl-4-CF3)]P[Ac4c][NMeGly(cPent)][NMeD]-NMe2; lactam N-11) | C (A compound having a KD ratio of 0.1 or more and less than 3 is denoted as C) | B (a compound having 3 or more and less than 10 is denoted as B) | 9.77 |
| CCCN1C(=O)CN(C)C(=O)CN(CC)C(=O)[C@H]([C@@H](C)CC)NC(=O)[C@H](CC(C)C)N(C)C(=O)C[C@@H](C(=O)N(C)C)N(C)C(=O)[C@H](C2CCCC2)N(C)C(=O)C2(CCCC2)NC(=O)[C@@H]2CC(F)(F)CN2C(=O)[C@H](CCc2ccc(C(F)(F)F)c(Cl)c2)NC(=O)CN(C)C(=O)[C@@H]1Cc1ccc(C(F)(F)F)cc1 [PP0425] ([NMeL]I[NEtG][Sar][NPrPhe(4-CF3)][Sar][hPhe(3-Cl-4-CF3)][Pro(4,4-F2)][Ac5c][NMeGly(cPent)][NMeD]-NMe2; lactam N-11) | C (A compound having a KD ratio of 0.1 or more and less than 3 is denoted as C) | B (a compound having 3 or more and less than 10 is denoted as B) | 10.00 |
| CCCN1C(=O)CN(C)C(=O)CN(CC)C(=O)[C@H]([C@@H](C)CC)NC(=O)[C@H](CC(C)C)N(C)C(=O)C[C@@H](C(=O)N(C)C)N(C)C(=O)[C@H](C2CCCC2)N(C)C(=O)C2(CCC2)NC(=O)[C@@H]2CC(F)(F)CN2C(=O)[C@H](CCc2ccc(C(F)(F)F)c(Cl)c2)NC(=O)CN(C)C(=O)[C@@H]1Cc1ccc(C(F)(F)F)cc1 [PP0426] ([NMeL]I[NEtG][Sar][NPrPhe(4-CF3)][Sar][hPhe(3-Cl-4-CF3)][Pro(4,4-F2)][Ac4c][NMeGly(cPent)][NMeD]-NMe2; lactam N-11) | C (A compound having a KD ratio of 0.1 or more and less than 3 is denoted as C) | C (A compound having a KD ratio of 0.1 or more and less than 3 is denoted as C) | 9.92 |
| CCCN1C(=O)CN(C)C(=O)CN(CC)C(=O)[C@H]([C@@H](C)CC)NC(=O)[C@H](CC(C)C)N(C)C(=O)C[C@@H](C(=O)N(C)C)N(C)C(=O)[C@H](C2CCCC2)N(C)C(=O)C2(CCCC2)NC(=O)[C@@H]2C[C@@H](OCC)CN2C(=O)[C@H](CCc2ccc(C(F)(F)F)c(Cl)c2)NC(=O)CN(C)C(=O)[C@@H]1Cc1ccc(C(F)(F)F)cc1 [PP0427] ([NMeL]I[NEtG][Sar][NPrPhe(4-CF3)][Sar][hPhe(3-Cl-4-CF3)][Hyp](Et)[Ac5c][NMeGly(cPent)][NMeD]-NMe2; lactam N-11) | C (A compound having a KD ratio of 0.1 or more and less than 3 is denoted as C) | B (a compound having 3 or more and less than 10 is denoted as B) | 9.96 |
| CCCN1C(=O)CN(C)C(=O)CN(CC)C(=O)[C@H]([C@@H](C)CC)NC(=O)[C@H](CC(C)C)N(C)C(=O)C[C@@H](C(=O)N(C)C)N(C)C(=O)[C@H](C2CCCC2)N(C)C(=O)C2(CCC2)NC(=O)[C@@H]2C[C@@H](OCC)CN2C(=O)[C@H](CCc2ccc(C(F)(F)F)c(Cl)c2)NC(=O)CN(C)C(=O)[C@@H]1Cc1ccc(C(F)(F)F)cc1 [PP0428] ([NMeL]I[NEtG][Sar][NPrPhe(4-CF3)][Sar][hPhe(3-Cl-4-CF3)][Hyp](Et)[Ac4c][NMeGly(cPent)][NMeD]-NMe2; lactam N-11) | C (A compound having a KD ratio of 0.1 or more and less than 3 is denoted as C) | B (a compound having 3 or more and less than 10 is denoted as B) | 10.20 |

— patent US20240158446A1, “CYCLIC COMPOUND HAVING SELECTIVE INHIBITORY ACTION ON KRAS OVER HRAS AND NRAS” (CHUGAI SEIYAKU KABUSHIKI KAISHA, priority 2021, published 2024)
